Consider one compound from patent publication US20250026734A1 (priority 2021, published 2025).

The test system of this test is SARS-CoV-2 strains. Type of test: cell-based.

Each structure is given as a SMILES string. Values joined by “and” are separate entries in the source; they are usually repeats but may differ in a detail not shown here. Equal entries are not always repeated. Where two headings read alike, the source gives them in different places.

`CCCCn1c(=O)c2ccc(NCCO)cc2c2cc(C(O)(C(F)(F)F)C(F)(F)F)ccc21` [NR-31]: the EC50 (read-out: EC50) is 5.12 µM and 3.47 µM and 3.53 µM and 5.28 µM and 3.37 µM and 4.07 µM and 3.62 µM; the EC50 (read-out: EC50 (inhibits cell death induced by SARS-CoV-2 infection by 50%)) came to 4.4 µM.
